From PubChem BioAssay (NCI) come the findings set out here.

SMILES strings stand for the structures.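 Values below derive from 48-hour exposures of cells grown in 96-well plates, with endpoints linearly interpolated between the two concentrations bracketing the appropriate inhibition level. Definition used: TGI = concentration required for complete inhibition of growth.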 Peptide text beside a SMILES is read from it. * marks the point of attachment. X26 = Clc1c(Cl)c(Cl)c(O*)c(Cl)c1Cl; Boc = CC(C)(C)OC(=O)*; OBn = c1ccc(CO*)cc1; Bn = c1ccc(C*)cc1

Test systems include 786-0 renal; BT-549 breast; LOX IMVI melanoma; NCI-H460 lung; PC-3 prostate; RXF 393 renal; SNB-19 CNS; SW-620 colon; UO-31 renal; SNB-75 CNS.
Common to all, as to assay: inhibition of tumour cell growth, NCI panel, 48 h

For the molecule `Cc1cc(OCc2nnc3sc(NC(=O)c4ccccc4)nn23)ccc1Cl`, the TGI was > 100 µM with 786-0 renal; > 100 µM in the assay with BT-549 breast; 78.7 µM with LOX IMVI melanoma; > 100 µM with NCI-H460 lung; > 100 µM with PC-3 prostate; 83.3 µM with RXF 393 renal. Further, the TGI in the assay on SNB-19 CNS is > 100 µM; with SW-620 colon it was > 100 µM; in the assay with UO-31 renal it was 35.2 µM.

Take `COc1ccc(C2=C(Cl)C(=O)O/C2=C\c2ccc(OC)c(Br)c2)cc1Cl`: the TGI is 39.1 µM in the assay on 786-0 renal; > 100 µM with LOX IMVI melanoma; > 100 µM in the assay with NCI-H460 lung; > 100 µM in the assay with PC-3 prostate; 46.3 µM in the assay with RXF 393 renal; 80.6 µM with SNB-19 CNS. The TGI in the assay with SNB-75 CNS, with SW-620 colon and in the assay on UO-31 renal was > 100 µM each time.

Turning to `O=P(OCc1ccccc1)(OCc1ccccc1)C(O)/C=C/c1ccccc1` (configuration not stated), the TGI is 39.5 µM in the assay with 786-0 renal; 71.2 µM in the assay on BT-549 breast; 31.5 µM with LOX IMVI melanoma; > 100 µM with PC-3 prostate; > 100 µM in the assay on RXF 393 renal; 71.3 µM in the assay on SNB-19 CNS. Moreover, the TGI with SW-620 colon amounted to 68.3 µM; in the assay with UO-31 renal, 80.3 µM.

With `CC(C)CC(NC(=O)C(CCC(=O)OCc1ccccc1)NC(=O)OC(C)(C)C)C(=O)NC(COCc1ccccc1)C(=O)NC(Cc1ccccc1)C(=O)Oc1c(Cl)c(Cl)c(Cl)c(Cl)c1Cl` (configuration not stated) (Boc-E(OBn)LS(Bn)F-X26; configuration not given here), the TGI was 90.7 µM in the assay with 786-0 renal; > 100 µM in the assay with LOX IMVI melanoma; 59.8 µM in the assay with NCI-H460 lung; > 100 µM in the assay on PC-3 prostate; 63.8 µM with RXF 393 renal; 83 µM in the assay with SNB-19 CNS. Further, the values for the TGI in the assay on SNB-75 CNS, in the assay on SW-620 colon and with UO-31 renal were > 100 µM, > 100 µM and 50.2 µM, respectively.

Take `COc1ccc(OC)c(NC(=O)C(=O)C(C(=O)c2ccccc2F)C2OC(=O)c3ccccc32)c1` (configuration not stated): the TGI in the assay with LOX IMVI melanoma was > 100 µM; in the assay with NCI-H460 lung, > 100 µM; with RXF 393 renal, 70.7 µM; with SNB-19 CNS it was > 100 µM; in the assay with SNB-75 CNS, > 100 µM; in the assay with SW-620 colon it was > 100 µM. The TGI in the assay on UO-31 renal is > 100 µM.

Regarding `COc1ccc(OC/C(N=Cc2ccncc2)=N/NC(=O)c2ccncc2)cc1`, the TGI in the assay with 786-0 renal, in the assay with BT-549 breast, in the assay with LOX IMVI melanoma, with NCI-H460 lung, with PC-3 prostate and in the assay with RXF 393 renal was > 100 µM throughout. Further, the TGI with SNB-19 CNS and in the assay with SW-620 colon was > 100 µM in each case.

With `Cc1nc(SCC(N)=O)c2sc(=S)n(-c3ccccc3)c2n1`, the TGI with 786-0 renal, in the assay with LOX IMVI melanoma, with NCI-H460 lung, with PC-3 prostate, with RXF 393 renal and in the assay on SNB-19 CNS was > 10 µM throughout. In addition, the TGI in the assay on SNB-75 CNS and with SW-620 colon was > 10 µM throughout.

With `O=c1c(-c2ccccc2)c(SCCN2CCCCCC2)n(-c2ccccc2)c(=S)n1-c1ccccc1`, the TGI with BT-549 breast is > 100 µM; in the assay with LOX IMVI melanoma, > 100 µM; in the assay with NCI-H460 lung it was > 100 µM; with RXF 393 renal, 98.6 µM; in the assay on SNB-75 CNS it was > 100 µM; in the assay on SW-620 colon, > 100 µM.

Regarding `COCC#C[C@@]1(O)CCCCC1CC(OC)OC` (some centres not stated), the TGI in the assay on 786-0 renal, in the assay with LOX IMVI melanoma, with NCI-H460 lung, in the assay on PC-3 prostate, in the assay on RXF 393 renal and with SNB-19 CNS was > 100 µM each time. Also, the TGI with SNB-75 CNS and in the assay with UO-31 renal was > 100 µM in each case.

As for `CC[N+]1(C)CCC(O)(c2ccc(C)cc2)C(C(=O)c2ccc(C)cc2)C1` (configuration not stated), the TGI in the assay with 786-0 renal is 34.6 µM; with BT-549 breast it was > 100 µM; in the assay with NCI-H460 lung, > 100 µM; in the assay on PC-3 prostate, > 100 µM; in the assay on RXF 393 renal it was 84.9 µM; in the assay on SNB-19 CNS, > 100 µM. Also, the TGI was 39.3 µM in the assay on SW-620 colon and > 100 µM in the assay with UO-31 renal.

For the molecule `CNC(=S)NNc1ncnc2c1c(-c1ccc(Cl)cc1)cn2-c1ccc(C)cc1`, the TGI was 24.2 µM in the assay on 786-0 renal; 29.2 µM with BT-549 breast; 33.5 µM in the assay with LOX IMVI melanoma; 17.8 µM in the assay with NCI-H460 lung; 17.9 µM in the assay with PC-3 prostate; 32.3 µM in the assay with RXF 393 renal. Further, the TGI in the assay on SNB-19 CNS stood at 36.6 µM; in the assay on SW-620 colon, 21.7 µM; in the assay on UO-31 renal, 23.4 µM.

Take `Cc1cnc2[nH]c(-c3cccc(F)c3)cc(=O)c2c1`: the TGI is > 83.6 µM in the assay on 786-0 renal; > 100 µM in the assay on LOX IMVI melanoma; > 100 µM with RXF 393 renal; > 100 µM in the assay with SNB-75 CNS; > 100 µM with UO-31 renal.

For the molecule `O=[N+]([O-])/C(Cl)=C(/C(Cl)=C(Cl)Cl)N1CCCCC1`, the TGI amounted to 23.4 µM in the assay on 786-0 renal; 25.5 µM in the assay on LOX IMVI melanoma; 43 µM with NCI-H460 lung; 43.8 µM with PC-3 prostate; 20.6 µM with RXF 393 renal; 54.1 µM in the assay on SNB-19 CNS. The TGI in the assay on SNB-75 CNS is 56 µM; with UO-31 renal, 25.7 µM.

In the case of `Clc1cc(C(c2cc(Cl)sc2Cl)c2cc(Cl)sc2Cl)c(Cl)s1`, the TGI with 786-0 renal, in the assay on LOX IMVI melanoma, with NCI-H460 lung, with PC-3 prostate, in the assay with RXF 393 renal and with SNB-19 CNS was > 100 µM throughout. In addition, the TGI in the assay on SNB-75 CNS, in the assay on SW-620 colon and in the assay on UO-31 renal was > 100 µM each time.

Take `CCOC(=O)Cn1nnc2cc(Nc3c(C)[n+]([O-])c4cc(F)c(OCC)cc4[n+]3[O-])ccc21`: the TGI in the assay on 786-0 renal, in the assay with LOX IMVI melanoma, with NCI-H460 lung, in the assay on PC-3 prostate, with RXF 393 renal and in the assay with SW-620 colon was > 100 µM each time. The TGI in the assay with UO-31 renal is > 100 µM.

On to `N#Cc1nc(CCCN2C(=O)c3ccccc3C2=O)oc1N`, for which the TGI in the assay with 786-0 renal, with BT-549 breast, with LOX IMVI melanoma, with NCI-H460 lung, with PC-3 prostate and with RXF 393 renal was > 100 µM throughout. Further, the TGI with SNB-19 CNS, with SW-620 colon and with UO-31 renal was > 100 µM throughout.
